By IC50 is commonly meant the point on the concentration scale where inhibition reaches its midpoint.

The structures appear in SMILES notation. Where only a bound is given, the exact number is not on record here.

The target of one test is T1, human MC5R (Homo sapiens, UniProt P33032).
T1 construct: purchased Perkin Elmer RBXMC5M400UA
T1 sequence (P33032 whole entry): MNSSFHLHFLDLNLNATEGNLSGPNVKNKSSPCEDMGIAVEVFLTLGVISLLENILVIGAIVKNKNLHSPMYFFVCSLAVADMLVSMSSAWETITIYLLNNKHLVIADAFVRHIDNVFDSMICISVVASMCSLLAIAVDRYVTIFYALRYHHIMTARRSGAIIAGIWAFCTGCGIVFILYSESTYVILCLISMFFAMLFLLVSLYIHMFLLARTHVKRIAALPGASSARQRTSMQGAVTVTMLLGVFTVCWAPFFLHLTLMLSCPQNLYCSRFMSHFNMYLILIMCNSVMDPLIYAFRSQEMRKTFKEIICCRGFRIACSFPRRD
Briefly: Human MC5R radioligand binding assay ([125I] NDP-MSH displacement, hMC5R membranes).
Settings: not given
Here is the method: After incubation for 10 mins the phosphate buffer containing the iodine was added to NDP-MSH (10 ul at 1 mg/mL) in a separate eppendorf tube. This was incubated for a further 10 mins.
Resuspended membranes were kept on ice until they were added to the wells of the plate.
Assays were performed in 96 well polypropylene plates. […] This was incubated for 1 hr at 37 °C. Non-specific binding was determined with […] NDP-MSH. Plates were filtered using a Tomtec cell harvester with GF/A filters (Wallac) (presoaked in 0.6% polyethylenimine) and washed three times with 1.0 mL ice-cold wash buffer (the above incubation buffer without 1,10-phenanthroline and Complete™ protease inhibitor tablet). The filters were dried in a 37 °C oven, placed in a sample bag and 5 mL Betaplatescint (Wallac) was added. Prepared filters were counted in cassettes in a Microbeta Trilux (Wallac) for 1 min. […] Data analysis was performed using GraphPad Prism 4, employing competition binding with a single site model and a fixed Hill coefficient. The following equation was used: Y = Bottom + (Top-Bottom)/1/10^(X-logEC50), where X = log(concentration) and Y = binding to fit the data.
As to `CC[C@@H](CN1CC[C@@H](CNC(=O)c2ccc(Cl)c(Cl)c2)N[C@@H](CCN)C1=O)C(C)C` (racemic) [Compound 489, N-(((3S,5S)-3-(2-aminoethyl)-1-((R)-2-ethyl-3-methylbutyl)-2-oxo-1,4-diazepan-5-yl)methyl)-3,4-dichlorobenzamide], the IC50 was below 10000 nM.

As for `CC[C@H](CN1CC[C@@H](CNC(=O)c2ccc(Cl)c(Cl)c2)N[C@@H](CCN)C1=O)C(C)C` (racemic) [Compound 490, N-(((3S,5S)-3-(2-aminoethyl)-1-((S)-2-ethyl-3-methylbutyl)-2-oxo-1,4-diazepan-5-yl)methyl)-3,4-dichlorobenzamide], the IC50 is below 10000 nM.

`CC[C@H](CN1CC[C@@H](CNC(=O)c2ccc3cc(Cl)ccc3c2)N[C@@H](CC(C)(C)N2CCCCC2)C1=O)c1ccccc1` (racemic) [Compound 499, 6-chloro-N-(((3S,5S)-3-(2-methyl-2-(piperidin-1-yl)propyl)-2-oxo-1-((S)-2-phenylbutyl)-1,4-diazepan-5-yl)methyl)-2-naphthamide] returned a concentration for half-maximal inhibition (IC50) below 100 nM.

The molecule `CC[C@H](CN1CC[C@H](CNC(=O)c2ccc3cc(Cl)ccc3c2)N[C@H](CC(C)(C)N2CCCCC2)C1=O)c1ccccc1` (racemic) [Compound 500, 6-chloro-N-(((3R,5R)-3-(2-methyl-2-(piperidin-1-yl)propyl)-2-oxo-1-((S)-2-phenylbutyl)-1,4-diazepan-5-yl)methyl)-2-naphthamide] registered an IC50 below 100 nM.

On to `CCC(CN1CCC(CNC(=O)c2ccc3cc(Cl)ccc3c2)N[C@@H](C2CCN(C(C)C)CC2)C1=O)c1ccccc1` (mixture of isomers) [Compound 564, (S)-6-chloro-N-((3-(1-isopropylpiperidin-4-yl)-2-oxo-1-(2-phenylbutyl)-1,4-diazepan-5-yl)methyl)-2-naphthamide], for which the IC50 was below 100 nM.

Still in this test, the particulars now being: hMC5R assay as in Example 102; compounds tested as trifluoroacetate or hydrochloride salts, or as free base.
For `CCC(CN1CC[C@@H](CNC(=O)c2ccc3ccccc3c2)N[C@@H](CCN)C1=O)c1ccccc1` (mixture of isomers) [Compound 37, (3S,5S)-3-(2-aminoethyl)-5-(N-2-naphthamidomethyl)-1-(2-phenylbutyl)-1,4-diazepan-2-one], the IC50 was below 100 nM.

Turning to `CCN(CC)CC[C@@H]1N[C@H](CNC(=O)c2ccc3cc(F)ccc3c2)CCN(CC(c2ccccc2)c2ccccc2)C1=O` [Compound 25, N-(((3S,5S)-3-(2-(diethylamino)ethyl)-1-(2,2-diphenylethyl)-2-oxo-1,4-diazepan-5-yl)methyl)-6-fluoro-2-naphthamide], the IC50 was below 100 nM.

As for `NCC[C@@H]1N[C@H](CNC(=O)c2ccc3cc(F)ccc3c2)CCN(CC(c2ccccc2)c2ccccc2)C1=O` [Compound 31, N-(((3S,5S)-3-(2-aminoethyl)-1-(2,2-diphenylethyl)-2-oxo-1,4-diazepan-5-yl)methyl)-6-fluoro-2-naphthamide], the IC50 was below 1000 nM.

As to `NCC[C@@H]1N[C@H](CNC(=O)c2ccc3ccccc3c2)CCN(Cc2cc(Cl)cc(Cl)c2)C1=O` [Compound 49, (3S,5S)-3-(2-aminoethyl)-5-(2-naphthoylaminomethyl)-1-(3,5-dichlorobenzyl)-1,4-diazepan-2-one], the IC50 was below 1000 nM.

In the case of `N=C(N)NCCC[C@@H]1N[C@H](CNS(=O)(=O)c2ccc3ccccc3c2)CCN(CC(c2ccccc2)c2ccccc2)C1=O` [Compound 50, N-(((3S,5S)-1-(2,2-diphenylethyl)-3-(3-guanidinopropyl)-2-oxo-1,4-diazepan-5-yl)methyl)-2-naphthalene-2-sulfonamide], the IC50 is below 10000 nM.

With `CCC(CC)CN1CC[C@@H](CNC(=O)c2ccc3ccccc3c2)N[C@@H](CCN)C1=O` [Compound 54, N-(((3S,5S)-3-(2-aminoethyl)-1-(2-ethylbutyl)-2-oxo-1,4-diazepan-5-yl)methyl)-2-naphthamide], the IC50 is below 1000 nM.

For `CN(C[C@@H]1CCN(CC(c2ccccc2)c2ccccc2)C(=O)[C@H](CCCN)N1)C(=O)c1ccc2cc(Br)ccc2c1` [Compound 60, N-(((3S,5S)-3-(3-aminopropyl)-1-(2,2-diphenylethyl)-2-oxo-1,4-diazepan-5-yl)methyl)-6-bromo-N-methyl-2-naphthamide], the IC50 is below 10000 nM.

For `CN1[C@H](CNC(=O)c2ccc3cc(Br)ccc3c2)CCN(CC(c2ccccc2)c2ccccc2)C(=O)[C@@H]1CCCN` [Compound 62, N-(((3S,5S)-3-(3-aminopropyl)-1-(2,2-diphenylethyl)-4-methyl-2-oxo-1,4-diazepan-5-yl)methyl)-6-bromo-2-naphthamide], the 50% inhibitory concentration (IC50) is below 1000 nM.

In the case of `NCCC[C@@H]1N[C@H](CNC(=O)c2ccc3ccccc3c2)CCN(CC(c2ccccc2)c2ccccc2)C1=O` [Compound 63, N-(((3S,5S)-3-(3-aminopropyl)-1-(2,2-diphenylethyl)-2-oxo-1,4-diazepan-5-yl)methyl)-2-naphthamide], the IC50 was below 1000 nM.

For the molecule `CC(C)NCCC[C@@H]1N[C@H](CNC(=O)c2ccc3ccccc3c2)CCN(CC(c2ccccc2)c2ccccc2)C1=O` [Compound 65, N-(((3S,5S)-1-(2,2-diphenylethyl)-3-(3-(isopropylamino)propyl)-2-oxo-1,4-diazepan-5-yl)methyl)-2-naphthamide], the IC50 is below 100 nM.

Consider `CNC(=N)NCCC[C@@H]1N[C@H](CNC(=O)c2ccc3ccccc3c2)CCN(CC(c2ccccc2)c2ccccc2)C1=O` [Compound 67, N-(((3S,5S)-1-(2,2-diphenylethyl)-3-(3-(3-methylguanidino)propyl)-2-oxo-1,4-diazepan-5-yl)methyl)-2-naphthamide], for which the IC50 was below 10 nM.

Take `CNCCC[C@@H]1N[C@H](CNC(=O)c2ccc3ccccc3c2)CCN(CC(c2ccccc2)c2ccccc2)C1=O` [Compound 71, N-(((3S,5S)-1-(2,2-diphenylethyl)-3-(3-(methylamino)propyl)-2-oxo-1,4-diazepan-5-yl)methyl)-2-naphthamide]: the IC50 is below 1000 nM.

For the molecule `N=C(N)NCCC[C@@H]1N[C@H](CNC(=O)Cc2ccc3ccccc3c2)CCN(CC(c2ccccc2)c2ccccc2)C1=O` [Compound 110, N-(((3S,5S)-1-(2,2-diphenylethyl)-3-(3-guanidinopropyl)-2-oxo-1,4-diazepan-5-yl)methyl)-2-(naphthalen-2-yl)acetamide], the IC50 is below 1000 nM.

Take `N=C(N)NCCC[C@@H]1N[C@H](CNC(=O)C2CCc3ccccc3C2)CCN(CC(c2ccccc2)c2ccccc2)C1=O` (stereo partly drawn) [Compound 111, N-(((3S,5S)-1-(2,2-diphenylethyl)-3-(3-guanidinopropyl)-2-oxo-1,4-diazepan-5-yl)methyl)-1,2,3,4-tetrahydronaphthalene-2-carboxamide]: the IC50 is below 100 nM.

For the molecule `N=C(N)NCCC[C@@H]1N[C@H](CNC(=O)c2cnc3ccccc3c2)CCN(CC(c2ccccc2)c2ccccc2)C1=O` [Compound 112, N-(((3S,5S)-1-(2,2-diphenylethyl)-3-(3-guanidinopropyl)-2-oxo-1,4-diazepan-5-yl)methyl)quinoline-3-carboxamide], the IC50 was below 100 nM.

On to `N=C(N)NCCC[C@@H]1N[C@H](CNC(=O)c2cnc3ccccc3n2)CCN(CC(c2ccccc2)c2ccccc2)C1=O` [Compound 113, N-(((3S,5S)-1-(2,2-diphenylethyl)-3-(3-guanidinopropyl)-2-oxo-1,4-diazepan-5-yl)methyl)quinoxaline-2-carboxamide], for which the IC50 was below 1000 nM.

The record behind these values is EP2257297B1, “COMPOUNDS FOR USE IN THE TREATMENT OF ACNE, SEBORRHOEA AND SEBHORROEIC DERMATITIS, OR FOR REDUCING SEBUM SECRETION” (priority 2008, dated 2009).
